According to patent publication US12285403B2, “A2-73 as a therapeutic for insomnia, anxiety and agitation” (Anavex Life Sciences Corp., priority 2016, dated 2025):

Legend:
[1] = system: mild-to-moderate Alzheimer's disease patients; assay: EEG/ERP (P300) target detection task, Phase 2a study; assay type: in vivo, human; conditions: for False Alarms / P300 Amplitude / Task Accuracy / Reaction Time: mean ± SEM; for False Alarms: baseline 3.4 ± 1.0, healthy control 1.1 ± 0.2; for P300 Amplitude: baseline 5.99 ± 0.58, healthy control 7.36 ± 0.39; for Task Accuracy: baseline 83.8 ± 3.8, healthy control 94.1 ± 1.1; for Reaction Time: baseline 559.0 ± 24.0, healthy control 458.6 ± 11.4
Experimental: An event-related potential (ERP) is the measured brain response that is the direct result of a specific sensory, cognitive, or motor event. More formally, it is any stereotyped electrophysiological response to a stimulus. The study of the brain in this way provides a noninvasive means of evaluating brain functioning. ERPs are measured by means of electroencephalography (EEG). Particular efficacy data measurements addressed cognition and function. Cognitive measures include MMSE and Cogstate battery. Functional measures were ADCS-ADL. Supportive Biomarker Measurements include ERP (P300): fundamental measures of synaptic network performance and target engagement. ERP target detection task measures is a direct measure of attention, speed of brain processing, and simple functional performance. 2-73 Rescues Cognitive Effects on a Cellular Level on the subjects of the Phase 2a study. […] 2-73 effect on synaptic networks and effect on cognition and behavior at daily doses of 10 mg-50 mg is shown. ERP peak measures (P300) are shown. The P300 (P3) wave is an event related potential (ERP) component elicited in the process of decision making. It is considered to be an endogenous potential, as its occurrence links not to the physical attributes of a stimulus, but to a person's reaction to it. More specifically, the P300 is thought to reflect processes involved in stimulus evaluation or categorization. ERP target detection task is a direct measure of attention, speed of brain. processing, and simple behavioral performance. Psychometric measures (Cogstate) cognitive measures: Detection: processing speed (psychomotor function), Identification: reaction time (attention), One Back: working memory (cognition), One Card Learning: visual learning (visual memory), ISLT: verbal learning, ISLT-delay: verbal memory. Psychometric measures (MMSE): cognitive measures. Behavioral measures (ADCS-ADL): behavioral measures.

[2] = system: insomnia, anxiety or agitation; assay: Single-patient therapy Examples 1-10 (insomnia, anxiety, agitation); assay type: in vivo, human
Experimental: A person presents as suffering from maintenance insomnia for one year. They are started on oral A2-73 at 10 mg/day. […] They are currently maintained on 10 mg of A2-73 and is sleeping well. A person presents with anxiety of three years' duration. They are administered A2-73 at 20 mg oral per day every other day. […] They are maintained on this dosing schedule for 60 days. […] They are treated with 30 mg A2-73 oral daily for 30 days. […] They are currently maintained at that dosage and is not anxious. A person presents with MCI and reports maintenance insomnia for one year. They are started on oral A1-41 at 10 mg/day. […] They are currently maintained on 10 mg of A1-41 and is sleeping well. The patient is a person with diagnosed AD and reported anxiety of three years' duration. They are administered A19-144 at 20 mg oral per day every day for 90 days. […] They are chronically maintained on this dosing schedule. A person diagnosed with mild cognitive impairment presents as suffering from maintenance insomnia for one year. They are started on oral A2-73 at 50 mg/day. […] They are currently maintained on 50 mg of A2-73 daily and is sleeping well. A person diagnosed with Alzheimer's disease presents with insomnia/WASO and agitation and a systolic blood pressure of 145 mm Hg. They are started on oral A2-73 at 30 mg/day. […] They are also less agitated. Their results on all cognitive tests and HAM-D improve. They are currently maintained on 30 mg of A2-73 daily. A person diagnosed with Alzheimer's disease presents with insomnia/WASO and agitation. They are started on oral A2-73 at 100 mg/day. […] They are also less agitated. Their results on all cognitive tests and HAM-D improve. They are currently maintained on 100 mg of A2-73 every other day. A person diagnosed with Alzheimer's disease presents with insomnia/WASO and agitation. They are started on oral A19-144 at 50 mg/day. […] They are also less agitated. Their results on all cognitive tests and HAM-D improve. They are currently maintained on 50 mg of A19-144 daily. A person diagnosed with Alzheimer's disease presents with insomnia/WASO and agitation. They are started on oral A1-41 at 30 mg/day. […] They are also less agitated. Their results on all cognitive tests and HAM-D improve. They are currently maintained on 30 mg of A1-41 daily.

[3] = Example 7: oral 30 mg/day, 30 days
[4] = Example 8: oral 100 mg/day, 30 days

Compound: CN(C)CC1CCOC1(c1ccccc1)c1ccccc1.Cl (stereo not drawn) [A2-73, tetrahydro-N,N-dimethyl-2,2-diphenyl-3-furanmethanamine hydrochloride]
- False Alarms ([1]; 5 Week): 1.0 ± 0.5%
- P300 Amplitude ([1]; 5 Week, daily 10 mg-50 mg): 7.09 ± 0.72 μV
- Task Accuracy ([1]; 5 Week): 92.6 ± 2.4%
- Reaction Time ([1]; 5 Week): 492.6 ± 23.8 ms
- All tested areas (ERP, Cogstate, MMSE, ADCS-ADL) vs starting baseline ([1]; 5 weeks, daily 10 mg-50 mg, FIG. 9): improvement
- False Alarms ([1]; 17 Week): 1.2 ± 0.9%
- P300 Amplitude ([1]; 17 Week): 6.38 ± 0.61 μV
- Task Accuracy ([1]; 17 Week): 92.2 ± 3.9%
- Reaction Time ([1]; 17 Week): 498.8 ± 24.8 ms
- False Alarms ([1]; 31 Week): 2.6 ± 1.2%
- P300 Amplitude ([1]; 31 Week): 5.93 ± 0.77 μV
- Task Accuracy ([1]; 31 Week): 88.1 ± 4.4%
- Reaction Time ([1]; 31 Week): 521.8 ± 28.1 ms
- Sleep at follow up (maintenance insomnia) ([2]; Example 1: person, oral 10 mg/day, 30 days): sleeping well
- Anxiety ([2]; Example 2: person, 20 mg oral every other day, after two days of dosing): Resolution of the anxiety
- Clinical evaluation of agitation ([2]; Example 3: person, 30 mg oral daily for 30 days): normal affect without agitation
- Sleep at follow up (maintenance insomnia) ([2]; Example 6: person with MCI, oral 50 mg/day, 30 days): sleeping well
- Agitation at follow up [2, 3]: less agitated
- Results on all cognitive tests and HAM-D [2, 3]: improve
- Systolic BP at follow up ([2]; Example 7: oral 30 mg/day, 30 days, 145 mm Hg at presentation): 129 mm Hg
- Sleep at follow up (insomnia/WASO) ([2]; Example 7: person with AD, oral 30 mg/day, 30 days): sleeping well through the night
- Agitation at follow up [2, 4]: less agitated
- Results on all cognitive tests and HAM-D [2, 4]: improve
- Sleep at follow up (insomnia/WASO) ([2]; Example 8: person with AD, oral 100 mg/day, 30 days): sleeping well through the night
